Laboratory results as given in patent US7375229B2, “Dihydro-dibenzo[B,E]oxepine based selective estrogen receptor modulators, compositions and methods” (Eli Lilly and Company, priority 2002, dated 2008).

Key:
ERbeta receptor = molecular target: T1, ERbeta receptor (Homo sapiens, UniProt Q92731); experiment: Competition binding assay with 3H-Estradiol, ERbeta receptor; details: IC50 converted to Ki using Cheng-Prusoff equation; 3H-Estradiol competition; read-out: ER binding Ki (ERβ)
T1 construct: purchased PanVera
Protocol: (§1) Competition binding assay is run in a buffer containing 50 mM Hepes, pH 7.5, 1.5 mM EDTA, 150 mM NaCl, 10% glycerol, 1 mg/ml ovalbumin and 5 mM DTT, using 0.025 μCi per well ^3H-Estradiol (NEN #NET517 at 118 Ci/mmol, 1 mCi/ml), 10 ng/well ERAlpha or ERbeta receptor (PanVera). Competing compounds are added at 10 different concentrations. Non-specific binding is determined in the presence of 1 μM of 17-B Estradiol. The binding reaction (140 μl) is incubated for 4 hours at room temperature, then 70 μl of cold DCC buffer is added to each reaction (DCC buffer contains per 50 ml of assay buffer, 0.75 g of charcoal (Sigma) and 0.25 g of dextran (Pharmacia)). Plates are mixed 8 minutes on an orbital shaker at 4° C. Plates are then centrifuged at 3,000 rpm at 4° C. for 10 minutes. An aliquot of 120 μl of the mix is transferred to another 96-well, white flat bottom plate (Costar) and […] of Wallac Optiphase “Hisafe 3” scintillation fluid is added to each well. Plates are sealed and shaken vigorously on an orbital shaker. After an incubation of 2.5 hrs, read plates in a Wallac Microbeta counter. The data is used to calculate an IC50 and % Inhibition at 10 μM. The Kd for ^3H-Estradiol is determined by saturation binding to ER alpha and ER beta receptors. The IC50 values for compounds are converted to Ki using Cheng-Prusoff equation and the Kd determined by saturation binding assay.

[1] = system: Ishikawa human endometrial tumor cells; experiment: Ishikawa cell assay (PNPP readout), agonist and antagonist modes; format: cell-based; details: for IC50: Homo sapiens, Ishikawa, antagonist mode, with 1 nM E2; for Ishikawa Agonist % Eff: agonist mode, % efficacy versus the response to Tamoxifen
Text: Ishikawa human endometrial tumor cells are maintained in MEM (minimum essential medium, with Earle's salts and L-Glutamine, Gibco BRL, Gaithersburg, Md.), supplemented with 10% fetal bovine serum (FBS) (V/V), (Gibco BRL). One day prior to assay, growth media is changed to assay medium, DMEM/F-12 (3:1) (Dulbecco's Modified Eagle Medium: Nutrient Mixture F-12, 3:1 Mixture, phenol red-free, Gibco BRL) supplemented with 5% dextran coated charcoal stripped fetal bovine serum (DCC-FBS) (Hyclone, Logen, Utah), L-Glutamine (2 mM), MEM sodium pyruvate (1 mM), HEPES (N-[2-hydroxyethyl]piperazine-N′-[2-ethanesulfonic acid] 2 mM) all from Gibco BRL). After an overnight incubation, ishikawa cells are rinsed with Dulbecco's Phosphate Buffered Saline (1×) (D-PBS) without Ca^+2 and Mg^+2 (Gibco BRL), and trypsinized by a 3 minute incubation with 0.25% Trypsin/EDTA, phenol red-free (Gibco BRL). Cells are resuspended in assay medium and adjusted to 250,000 cells/ml. Approximately 25,000 cells in a 100 ul media are added to flat-bottom 96 wells microculture plates (Costar 3596) and incubated at 37° C. in a 5% CO2 humidified incubator for 24 hours. The next day, serial dilutions of compounds are prepared in assay medium (at 6 times the finial concentration in the assay). The assay is run in dual mode, agonist and antagonist modes. For the agonist mode, plates receive 25 μl/well of assay medium followed by 25 μl/well of diluted compounds (at 6× the final concentrations). For the antagonist mode, plates receive 25 µl/well of 6 nM E2 (β-Estradiol, Sigma, St. Louis, Mo.) followed by 25 μl/well of diluted compounds (at 6× the final concentrations). After an additional 48-hour incubation at 37° C. in a 5% CO2 humidified incubator, media is aspirated from wells and 100 μl fresh assay medium is added to each microculture. Serial dilutions of compounds are prepared and added to the cells as described above. After an additional 72 hour incubation at 37° C. in a 5% CO2 humidified incubator, the assay is quenched by removing media and rinsing plates twice in Dulbecco's Phosphate Buffered Saline (1×) (D-PBS) (Gibco BRL). The plates are dried for 5 min and frozen at −70° C. for at least 1 hour. The plates are then removed from the freezer and allowed to thaw at room temperature. To each well, 100 μl of 1-Step™ PNPP (Pierce Chemical Company, Rockford, Ill.) is added. After a 20-minute incubation, plates are read on a spectophotometer at 405 nm. The data is fitted to a linear interpolation to derive EC50 (for agonist mode) or IC50 (for antagonist mode) values. For the agonist mode, a % efficacy for each compound is calculated versus the response to Tamoxifen. For the antagonist mode, a % efficacy for each compound is calculated versus E2 (1 nM) alone.

[2] = system: MCF-7 breast adenocarcinoma cells; experiment: MCF-7 proliferation assay (14C-thymidine), antagonist mode; format: cell-based; details: Homo sapiens, MCF7, with 10 pM E2
Protocol: MCF-7 breast adenocarcinoma cells (ATCC HTB 22) are maintained in MEM (minimal essential medium, phenol red-free, Gibco BRL) supplemented with 10% fetal bovine serum (FBS) (V/V), L-glutamine (2 mM), sodium pyruvate (1 mM), HEPES ((N-[2-hydroxyethyl]piperazine-N′-[2-ethanesulfonic acid] 10 mM}, non-essential amino acids (0.1 mM) and Penicillin Streptomycin (1×). Seven days prior to assay, MCF-7 cells are switched to assay media which is the same as maintenance medium except supplemented with 10% dextran-coated charcoal-stripped fetal bovine serum (DCC-FBS) assay medium in place of 10% FBS. MCF-7 cells are removed from flasks using 10× Trypsin EDTA (phenol red free, Gibco BRL) and diluted to 1× in (Ca++/Mg++ free HBSS (phenol red-free). Cells are adjusted to 80,000 cells/ml in assay medium. […] For each of the agonist plates, a basal level (media) and a maximum stimulated level (with 1 μM E2) is determined. For each of the antagonist plates, a basal level (media) and a E2 (10 pM) alone control is determined. […] The plates are incubated overnight in the same incubator and then counted on the Wallac Microbeta counter. […] For the agonist mode, an EC50 and percent of maximum E2 stimulation and concentration of maximum stimulation is calculated.

ERAlpha receptor = molecular target: T2, ERAlpha receptor (Homo sapiens, UniProt P03372); experiment: Competition binding assay with 3H-Estradiol, ERAlpha receptor; details: IC50 converted to Ki using Cheng-Prusoff equation; 3H-Estradiol competition; read-out: ER binding Ki (ERα)
T2 construct: purchased PanVera
T2 sequence (P03372 1-595): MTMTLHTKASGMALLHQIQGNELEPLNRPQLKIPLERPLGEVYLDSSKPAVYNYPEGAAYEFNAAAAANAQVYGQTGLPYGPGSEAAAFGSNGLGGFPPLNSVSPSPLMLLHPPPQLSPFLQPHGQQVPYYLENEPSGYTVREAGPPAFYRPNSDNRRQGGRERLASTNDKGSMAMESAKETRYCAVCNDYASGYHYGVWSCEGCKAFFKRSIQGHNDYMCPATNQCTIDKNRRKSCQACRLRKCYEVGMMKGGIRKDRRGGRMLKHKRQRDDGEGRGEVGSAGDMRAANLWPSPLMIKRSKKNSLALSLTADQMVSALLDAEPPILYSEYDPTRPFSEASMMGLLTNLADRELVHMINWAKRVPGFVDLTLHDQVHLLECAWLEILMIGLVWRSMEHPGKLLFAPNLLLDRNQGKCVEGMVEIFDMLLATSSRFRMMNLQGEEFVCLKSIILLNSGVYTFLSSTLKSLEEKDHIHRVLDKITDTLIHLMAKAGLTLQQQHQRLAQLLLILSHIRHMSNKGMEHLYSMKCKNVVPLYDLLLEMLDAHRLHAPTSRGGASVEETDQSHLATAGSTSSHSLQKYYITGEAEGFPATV
Protocol: as §1

T1 sequence (Q92731 whole entry): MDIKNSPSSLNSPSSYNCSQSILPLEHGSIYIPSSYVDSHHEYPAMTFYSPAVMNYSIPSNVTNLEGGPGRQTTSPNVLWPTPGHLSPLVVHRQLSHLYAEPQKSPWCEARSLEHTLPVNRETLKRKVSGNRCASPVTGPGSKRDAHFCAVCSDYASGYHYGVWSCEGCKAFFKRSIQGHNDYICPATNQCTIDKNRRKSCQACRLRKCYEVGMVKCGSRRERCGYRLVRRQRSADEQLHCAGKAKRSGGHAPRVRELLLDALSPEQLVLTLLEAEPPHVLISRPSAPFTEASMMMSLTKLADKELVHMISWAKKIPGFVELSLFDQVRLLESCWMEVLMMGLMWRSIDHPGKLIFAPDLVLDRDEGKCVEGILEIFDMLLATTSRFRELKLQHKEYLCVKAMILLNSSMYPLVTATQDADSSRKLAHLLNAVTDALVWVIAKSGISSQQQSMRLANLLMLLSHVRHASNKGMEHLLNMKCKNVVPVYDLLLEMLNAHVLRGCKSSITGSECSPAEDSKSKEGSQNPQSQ

Row | SMILES | Ki (ERbeta receptor) | IC50 [1] | Ishikawa Agonist % Eff [1] | IC50 [2] | Ki (ERAlpha receptor)
1 | Oc1ccc2c3c(sc2c1)Cc1ccccc1OC3c1ccc(OCCN2CCCCC2)cc1 (stereo not shown) [Example 1, 5-[4-(2-Piperidin-1-yl-ethoxy)-phenyl]-5,11-dihydro-6-oxa-12-thia-dibenzo[a,f]azulen-2-ol] | 1 nM | 19 nM | 4% | 8 nM | 1 nM
2 | Oc1ccc2c3c(ccc2c1)Cc1ccccc1OC3c1ccc(OCCN2CCCCC2)cc1 (stereo not shown) [Example 2, 13-[4-(2-Piperidin-1-yl-ethoxy)-phenyl]-7,13-dihydro-12-oxa-benzo[4,5]cyclohepta[1,2-a]naphthalen-3-ol] | 3 nM | 454 nM | 24% | 10 nM | 2 nM
